Assay results as given in patent US7951906B2, “Compounds capable of interacting with a cell-surface fibroblast growth factor receptor” (Enkam Pharmaceuticals A/S, priority 2002, dated 2011).
Positions of bridges follow the written chain, without caps; N, C: chain ends. Chains are numbered I, II in the order given. No end group written: not given here.

Assays:
[1] = tested on: polyclonal antibody raised against the intact FGL-peptide; assay: Competitive ELISA of immunoreactivity with antibody raised against FGL-peptide; assay type: binding; details: rabbit serum
Source text: Antibody specifically recognising an epitope comprising SEQ ID NO: 1 (FGL-peptide) were raised in rabbits according the standard procedure (Gill B M, Barbosa J A, Dinh T Q, Garrod S, O'Connor D T: Chromogranin B: isolation from pheochromocytoma, N-terminal sequence, tissue distribution and secretory vesicle processing. Regul Peptides 33:223-35, 1991). Synthetic FGL-peptide was coupled to a carrier protein, KLH (Keyhole Limpets Hemocyanin). The peptide was mixed with Freunds incomplete adjuvant and the mixture was injected into rabbits. 208 μg peptide was used per immunisation (per rabbit).
Antibodies (serum) were tested for specificity by competitive ELISA using a series FGL-peptide truncated variants according to the protocol described in R. J. Jenny, T. L. Messier, L. A. Ouellette, and W. R. Church, Methods Enzymol. 222, 400 (1993). 100% immunoreactivity was ob-served only with the intact FGL-peptide consisting of SEQ ID NO: 1.

[2] = tested on: hippocampal neurons; assay: Neurite outgrowth from hippocampal neurons; assay type: cell-based, rat; details: for stimulation of neurite outgrowth / length of neurites: 24 h, 5 μM F3 module 2; for retained stimulatory effect relative to the entire (non-mutated) FG loop peptide: peptides 50 μM
Procedure: Dissociated neurons from embryonic rat hippocampus (embryonic day 19), prepared as described (Skladchikova et al., 1999), were grown on Permanox plastic (Nunc) for 24 h at a density of 6000 cells/cm^2, at 37° C., 5% CO2 in Neurobasal medium containing 20 mM Hepes, 100 U/ml penicillin, 100 μg/ml streptomycin, 0.4% BSA supplemented with B27 (Gibco BRL) and the below specified compounds. After 24 h, cells were fixed with paraformaldehyde, stained with Coomassie Brilliant Blue R250 and the length of neurites was measured as described (Skladchikova et al, 1999).

[3] = target: T1, FGFR1 Ig modules 2, 3 (Mus musculus, UniProt P16092); assay: SPR binding to immobilized FGFR Ig modules 2, 3; details: for coefficient of dissociation: immobilized FGFR modules 2, 3
T1 construct: amino acids 249-365 and 141-365 of FGFR (swissprot p16092), respectively; made in house; host or cells: Drosophila S2 cells
T1 sequence (P16092 141-365): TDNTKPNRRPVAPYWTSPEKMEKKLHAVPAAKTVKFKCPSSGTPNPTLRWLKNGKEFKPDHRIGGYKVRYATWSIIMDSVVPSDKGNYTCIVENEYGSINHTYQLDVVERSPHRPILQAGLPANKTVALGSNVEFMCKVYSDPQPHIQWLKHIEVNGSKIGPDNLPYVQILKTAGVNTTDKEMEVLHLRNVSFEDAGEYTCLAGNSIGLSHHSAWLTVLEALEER
Source text: The NCAM F3 modules 1, 2 (without expression of exons a, AAG), and FGFR1 Ig modules 2, 3 were produced using rat NCAM cDNA and mouse FGFR1 (IIIC iso-form) cDNA. The F3 module 1 and the combined F3 modules 1, 2 consist of […] (SEQ ID NO:173) and amino acids 507-611 and 507-705 of NCAM (swissprot p13596), respectively. […] The FGFR Ig module 2 consists of […] […] The FGFR Ig module 3 and the combined Ig modules 2, 3 consist of […] (SEQ ID NO:174) and amino acids 249-365 and 141-365 of FGFR (swissprot p16092), respectively. […] All the proteins were purified by affinity chromatography using Ni2^+−NTA resin (Qiagen, USA) and/or ion exchange chromatography and gel filtration. ^15N-labelled F3 module 2 was produced as described (Thomsen et al., 1996). The NCAM Ig modules 1, 2 and 3 (RV and amino acids 20-308 of rat NCAM, swissprot p13596) was produced as described (Soroka et al., 2002).
The flow-rate was 5 μl/min. […] The FGFR Ig modules 2, 3 were immobilized on a sensor chip CM5 using amine coupling kit (Biosensor AB) as follows: 1) the two halves of the chip (designated Fc1 and Fc2) were activated by 20 μl activation solution; 2) the protein was immobilized on Fc1 using 12 μl 20 μg/ml protein in 10 mM sodium phosphate buffer pH 6.0; 3) Fc1 and Fc2 were blocked by 35 μl blocking solution. […] The resulting curve was used for analysis.

[4] = target: T2, human FGFR1 (Homo sapiens, UniProt P11362); assay: FGFR1 phosphorylation, Assay 1 (TREX-293 cells, StrepII-tagged FGFR1); assay type: cell-based; details: 20 min, 5 μM F3 module, 2.5 μM dendrimeric FG loop peptide
T2 construct: expressed in transfected cells; host or cells: TREX-293 cells (Invitrogen), Flp-In system
Procedure: Assay 1: TREX-293 cells (Invitrogen) were stably transfected with human FGFR1 having a C-terminal StrepII-tag (IBA biotech), using the Flp-In system (Invitrogen). For the study of phosphorylation: ˜2×10^7 cells were starved overnight before stimulation for 20 min with the specified compounds. Cells were lysed in PBS with 1% NP-40 and phosphatase inhibitors cocktail set II (Calbiochem). The cleared cell lysates were incubated with 50 μl agarose-coupled anti-phosphotyrosine antibodies (4G10-AC, Upstate Biotechnologies) for 3 hrs at 4° C. Care was taken to calibrate the amount of cells employed, so that considerable increases in phosphorylated FGFR could be detected. The bound protein was washed, eluted using 150 mM phenyl phosphate (Sigma), precipitated by 12% trichloroacetic acid, washed in cold acetone and dissolved in SDS-PAGE sample buffer. Immunoblotting was performed using antibodies against the recombinant StrepII-tag (IBA biotech). For immunoprecipitation: ˜1×10^7 cells were transiently transfected with the 180 kDa NCAM isoform or a control vector. Cells were incubated for 24 h and then starved overnight. After lysis, FGFR was purified on a StrepTactin Minicolumn (IBA Biotech) according to the manufacturer's instructions, and analyzed by immunoblotting with polyclonal antibodies against human NCAM.

T2 sequence (P11362 22-822): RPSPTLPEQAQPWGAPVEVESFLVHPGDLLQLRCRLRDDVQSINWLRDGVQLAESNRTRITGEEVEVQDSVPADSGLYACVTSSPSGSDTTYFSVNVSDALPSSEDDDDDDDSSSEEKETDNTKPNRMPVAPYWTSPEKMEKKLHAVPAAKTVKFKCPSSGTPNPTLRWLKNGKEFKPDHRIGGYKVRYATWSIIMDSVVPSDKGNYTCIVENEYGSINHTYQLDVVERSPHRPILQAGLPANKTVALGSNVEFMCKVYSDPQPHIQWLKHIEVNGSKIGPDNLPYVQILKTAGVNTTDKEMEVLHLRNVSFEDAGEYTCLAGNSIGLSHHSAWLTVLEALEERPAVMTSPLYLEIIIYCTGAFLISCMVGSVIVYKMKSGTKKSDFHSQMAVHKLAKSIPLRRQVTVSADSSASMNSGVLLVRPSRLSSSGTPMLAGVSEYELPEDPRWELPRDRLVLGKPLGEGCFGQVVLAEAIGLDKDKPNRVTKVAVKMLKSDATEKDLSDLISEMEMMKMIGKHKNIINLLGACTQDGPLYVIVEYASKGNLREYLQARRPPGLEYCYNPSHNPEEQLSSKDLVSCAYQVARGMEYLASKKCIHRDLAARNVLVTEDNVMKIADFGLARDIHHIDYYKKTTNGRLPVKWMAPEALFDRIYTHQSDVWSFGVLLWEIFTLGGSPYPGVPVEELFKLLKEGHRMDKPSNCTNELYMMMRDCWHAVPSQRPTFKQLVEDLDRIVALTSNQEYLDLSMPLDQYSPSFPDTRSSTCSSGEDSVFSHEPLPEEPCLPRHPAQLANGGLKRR

Q: With “t4: truncated FGL-peptide lacking the three C-terminal amino acids (EVYVVAENQQGK; NCAM Fn III, 2 [Swiss-Prot P13591] FGFR binding motif (variant))” as the molecule, how does the immunoreactivity [1] read?
A: Its immunoreactivity is 80%.

Q: For “SEQ ID NO:171: 11-amino acid fragment of SEQ ID NO: 5 (axonal-associated cell adhesion molecule), two amino acids truncated from the C-terminus (VAENSRGKNVA; Axonal-associated cell adhesion molecule [NCBI NP_446331] FGFR binding motif)”, which “stimulation of neurite outgrowth / length of neurites” value ([2]; hippocampal neurons) is on record?
A: Its value is “capable of stimulation of neurite outgrowth”.

Q: What about the “concentration of the peptide at maximal effect” value ([2]; hippocampal neurons, neurite outgrowth) of the same molecule?
A: Its value is “about 0.3 μg/ml”.

Q: Which “inhibition of the neuritogenic effect induced by the F3 module 2” value ([2]; 5 μM F3 module, ATP or AMP-PCP 0.4, 1.0 mM) does the source give for `Nc1ncnc2c1ncn2[C@@H]1O[C@H](COP(=O)(O)OP(=O)(O)CP(=O)(O)O)[C@@H](O)[C@H]1O` [AMP-PCP, reference compound] here?
A: The value was “complete inhibition”.

Q: What about the “inhibition of the neuritogenic effect induced by the FG loop peptide” value ([2]; 50 μM peptide, ATP or AMP-PCP 0.4, 1.0 mM) of the same molecule?
A: Its value is “complete inhibition”.

Q: Which “binding to the immobilized FGFR modules” value [3] does the source give for “TIMGLKPETRYAVR (FIII,1 domain of NCAM (Swiss-Prot P13591) FGFR binding motif) [EF loop peptide, peptide corresponding to residues T^573-R^586 of the NCAM F3 module 1]” here?
A: Its value is “cannot be detected”.

Q: What about the “stimulation of neurite outgrowth / length of neurites” value ([2]; hippocampal neurons) of the same molecule?
A: The value was “stimulate the neurite outgrowth significantly”.

Q: For “peptide derived from FGF2: peptide from a loop region in FGF2 similar to the heptameric NCAM peptide (AMKEDGR; FGF2)”, which “stimulation of neurite outgrowth / length of neurites” value ([2]; hippocampal neurons) is on record?
A: The value was “to the same extent as the similar NCAM peptide”.

Q: What does the source list for “SEQ ID NO:151: truncated version of the FG loop peptide, residues A^77-K^83 of the NCAM F3 module 2 (AENQQGK; NCAM Fn III, 2 [Swiss-Prot P13591] FGFR binding motif (Variant))”?
A: neurite outgrowth in dose-response study ([2]; hippocampal neurons, neurite length versus concentration): induced neurite outgrowth with a bell-shaped curve; retained stimulatory effect relative to the entire (non-mutated) FG loop peptide ([2]; hippocampal neurons): approximately 50%

Q: With “I: EVYVVAENQQGKSKAKK / II: EVYVVAENQQGKSKAK / III: EVYVVAENQQGKSKA / IV: EVYVVAENQQGKSKA (amide I:16-IV:C, I:17-II:C, II:16-III:C (inferred)) [dendrimeric FG loop peptide]” as the molecule, how does the coefficient of dissociation [3] read?
A: The coefficient of dissociation was 3.97±2.29×10^−3 s^−1.

Q: And the kon ([3]; immobilized FGFR modules 2, 3, read-out: coefficient of association)?
A: The kon was 2070 ± 1.08e+06 M⁻¹ s⁻¹.

Q: What about the “FGFR phosphorylation compared to the non-stimulated cells” value [4] of the same molecule?
A: The value was “substantially increase”.

Q: How did the “binding to the immobilized FGFR modules” value [3] turn out when “dendrimeric EF loop peptide: four peptide sequences of SEQ ID NO: 9 connected to a three-lysine backbone through their C-termini (TIMGLKPETRYAVR; also: four copies linked via C-termini to three-lysine dendrimer backbone)” was run?
A: Its value is “real-time binding”.

Q: What does the source list for “YKK: the FG loop peptide in which Y^74, K^83 and K^85 were substituted with alanine (EVAVVAENQQGASAA)”?
A: inhibition of the stimulatory effect of the peptide by ATP ([2]; 50 μM peptide, ATP 0.4, 1.0 mM): could no longer be inhibited; stimulation of neurite outgrowth / length of neurites ([2]; hippocampal neurons): retained its neuritogenic potency; retained stimulatory effect relative to the entire (non-mutated) FG loop peptide ([2]; hippocampal neurons): about 60%

Q: For `Cc1c[nH]c(/C=C2\C(=O)Nc3ccccc32)c1CCC(=O)O` [SU54402, reference compound], which “block of neurite outgrowth stimulation by the EF loop peptide” value ([2]; hippocampal neurons) is on record?
A: Its value is “specifically blocked”.

Q: With “nonamer V^76-S^84: truncated version of the FG loop peptide, residues V^76-S^84 (VAENQQGKS; NCAM Fn III, 2 [Swiss-Prot P13591] FGFR binding motif (Variant))” as the molecule, how does the “retained stimulatory effect relative to the entire (non-mutated) FG loop peptide” value ([2]; hippocampal neurons) read?
A: Its value is “approximately 50%”.

Q: How did the immunoreactivity [1] turn out when “t1: truncated FGL-peptide lacking the three N-terminal amino acids (VVAENQQGKSKA; NCAM Fn III, 2 [Swiss-Prot P13591] FGFR binding motif (variant))” was run?
A: The immunoreactivity was 40%.

B1: NCAM F3 modules 1, 2: recombinant protein: AGHHHHHH and amino acids 507-705 of rat NCAM (swissprot p13596) (protein)
chain: AGHHHHHHQADTPSSPSIDRVEPYSSTAQVQFDEPEATGGVPILKYKAEWKSLGEEAWHSKWYDAKEANMEGIVTIMGLKPETRYAVRLAALNGKGLGEISAATEFKTQPVREPSAPKLEGQMGEDGNSIKVNLIKQDDGGSPIRHYLVKYRALASEWKPEIRLPSGSDHVMLKSLDWNAEYEVYVVAENQQGKSKAAHFVFRTSAQ
Q: B1 was tested. Which “binding to the immobilized FGFR modules” value [3] did it give?
A: The value was “binds”.

Q: And the coefficient of dissociation [3]?
A: Its coefficient of dissociation is 5.56±0.07×10^−3 s^−1.

B2: NCAM Ig modules 1, 2 and 3: control protein: RV and amino acids 20-308 of rat NCAM, swissprot p13596 (protein)
chain: RVLQVDIVPSQGEISVGESKFFLCQVAGDAKDKDISWFSPNGEKLSPNQQRISVVWNDDDSSTLTIYNANIDDAGIYKCVVTAEDGTQSEATVNVKIFQKLMFKNAPTPQEFKEGEDAVIVCDVVSSLPPTIIWKHKGRDVILKKDVRFIVLSNNYLQIRGIKKTDEGTYRCEGRILARGEINFKDIQVIVNVPPTVQARQSIVNATANLGQSVTLVCDADGFPEPTMSWTKDGEPIENEEEDDEKHIFSDDSSELTIRNVDKNDEAEYVCIAENKAGEQDASIHLKVFAK
Q: B2 was tested. Which “binding to the immobilized FGFR modules” value [3] did it give?
A: Its value is “does not bind”.
